From patent publication US10183032B2, “Methods for treating bacterial infection” (Ball State Innovation Corporation, priority 2012, dated 2019)

Tested on: Human umbilical vein endothelial cells
Assay: Cytotoxicity assay (XTT), HUVEC
Format: cell-based
Conditions: HUVEC treated overnight, PEG solvent
Procedure: FIG. 6A illustrates that neither cytotoxicity nor bactericidal activity is detected. Human umbilical vein endothelial cells (HUVEC) were pretreated (18 hours) with the vehicle control polyethylene glycol (PEG) or with ML 141 and viability assessed using an XTT assay. The formazan dye produced in living cells was detectable at an absorbance wavelength of 490 nanometers and used as an indicator of cell viability. Absorbance values were not different amongst the groups (p>0.05 by one-way ANOVA; n=3/treatment).
HUVEC are plated at a density of 1.2×10^4 cells/ml into 96-well dishes coated with Attachment Factor. The next day, cells are pretreated with the vehicle control DMSO or with ML 141 (18 hours). An XTT-reducing assay is performed and absorbance read at 490 nanometers using a Bio-Rad plate reader.

With `COc1ccc(C2CC(c3ccccc3)=NN2c2ccc(S(N)(=O)=O)cc2)cc1` (stereo not shown) [ML 141, 4-[3-(4-methoxyphenyl)-5-phenyl-3,4-dihydropyrazol-2-yl]benzenesulfonamide] the “Cytotoxicity (XTT, absorbance 490 nm)” value was “not detectable”.
